This is an account of results in publication PMC10532587, “An Investigation of Structure–Activity Relationships and Cell Death Mechanisms of the Marine Alkaloids Discorhabdins in Merkel Cell Carcinoma Cells” (Marine Drugs, 2023).

Like-named read-outs stand apart in the source and are kept apart here.

The test system of assay [1] is HaCaT. The assay is described as follows: Cell survival by CellTiterGlo, control cells. In kind it is cell-based, human. The settings on record: for IC50: Homo sapiens, HaCaT; for AUC (arbitrary units) HaCaT: area under the dose-response curve, control cells. In general terms: ATP-based viability assays read luminescence as a measure of living cells.
The subject of assay [2] is MKL-2. Description: Cell survival by CellTiterGlo, VP-MCC line MKL-2. The class given is cell-based. Particulars: for IC50: CellTiterGlo, normalized to DMSO; for AUC (arbitrary units) MKL-2: area under the dose-response curve.
Assay [3] deals with MCC cell lines. Description: Cell survival by CellTiterGlo, MCC cell lines together. In kind it is cell-based. Particulars: average over MCC cell lines. How it is done: (§1) Three methods were employed for assessment of MCC and control cell survival/viability after discorhabdin treatment, two metabolic assays and a cell permeability assay. For all three methods, cells were plated in 384-well plates at 2500 cells/well and treated with various concentrations of discorhabdins for various time periods. CellTiterGlo^TM (Promega, Madison, WI, USA) measures cellular ATP content and was used to estimate potency of discorhabdins in cell viability assays as previously described. Continuous monitoring of metabolic activity was accomplished using a cellular reducing potential luminescence assay, the RealTime-Glo^TM MT Cell Viability Assay (Promega, Madison, WI, USA) according to manufacturer’s instructions. Loss of cell plasma membrane integrity was assessed using a cell-impermeant molecule that becomes fluorescent upon binding DNA [82] in parallel with apoptosis detection per manufacturer’s instructions (RealTimeGlo^TM Annexin V Apoptosis and Necrosis Assay-Promega). Two additional assays of apoptotic cell death were also used. Caspase activation in response to treatment of MCC cells by discorhabdins or bortezomib (as a positive control) was measured using the CaspaseGlo® 3/7 Assay (Promega, Madison, WI, USA) according to the manufacturer’s instructions at multiple time points. Inhibition of apoptotic cell death was investigated using pre-treatment of cells with for 1 h with the pan-caspase inhibitor Z-VAD-FMK (Enzo Life Sciences, Farmingdale, NY, USA) followed by treatment with discorhabdins or bortezomib and estimation of cell viability as outlined above.
(§2) In order to compare responses among all of the discorhabdins and cell lines (98 combinations), dose–response curves were generated using identical discorhabdin dilution series. GraphPad Prism 8 (San Diego, CA, USA) software was utilized to graph dose–response data and to calculate IC50 values and area under the dose–response curves (AUC) along with 95% confidence interval estimates using four-parameter logistic nonlinear regression analysis. For further analysis and comparisons, AUC for each cell line/discorhabdin pair was visualized in a heatmap generated in R version 1.3.1073 (R Core Team (2013). R: A language and environment for statistical computing. R Foundation for Statistical Computing, Vienna, Austria, http://www.R-project.org/ (accessed on 12 January 2023).

Assay [4] has as its system MCC26. Description: Cell survival by CellTiterGlo, VN-MCC line MCC26. In kind it is cell-based. The settings on record: for IC50: CellTiterGlo, normalized to DMSO; for AUC (arbitrary units) MCC26: area under the dose-response curve.
Assay [5] deals with MCC13. Description: Cell survival by CellTiterGlo, VN-MCC line MCC13. The class given is cell-based. The settings on record: for IC50: CellTiterGlo, normalized to DMSO; for AUC (arbitrary units) MCC13: area under the dose-response curve.
Assay [6] deals with Waga. The assay is described as follows: Cell survival by CellTiterGlo, VP-MCC line Waga. The class given is cell-based. The settings on record: for IC50: CellTiterGlo, normalized to DMSO; for AUC (arbitrary units) WaGa: area under the dose-response curve.
The subject of assay [7] is control (HaCaT) and Merkel cell carcinoma cell lines. Description: Cell survival by CellTiterGlo, all seven cell lines. The class given is cell-based. The settings on record: MCC and control cell lines. Here is the method:
as §1, §2
Figure S39: Activity of discorhabdins against M CC cell lines.
The indicated discorh abd ins were ass essed for th eir ability to affect surviv al of control (H aCaT) and Merkel cell carcino ma cell lines (VN-MCC: MCC13, MCC26, UISO and VP -MCC: MKL-1, MKL-2, Wag a). Cells were plat ed at 2500 cells/well and compounds the next day. Cell survival was estimated by CellTiterGlo (normalized to untreated (DMSO) cells on the same plate). Structures w ere o btained from the supplier and/or the PubChem database or as described in the text. Number in bold in ( ) refers to structures in Figure 1 in the text. Curves were plotted and IC50 values and 95% confidence interval calculated by GraphPad software. […]

Assay [8] has as its system UISO. The assay is described as follows: Cell survival by CellTiterGlo, VN-MCC line UISO. In kind it is cell-based. Particulars: for IC50: CellTiterGlo, normalized to DMSO; for AUC (arbitrary units) UISO: area under the dose-response curve.
Assay [9] deals with MKL-1. The assay is described as follows: Cell survival by CellTiterGlo, VP-MCC line MKL-1. In kind it is cell-based. Particulars: VP-MCC; for IC50: MKL-1, CellTiterGlo, normalized to DMSO, read-out: IC50 (nM) MKL-1; for AUC (arbitrary units) MKL-1: area under the dose-response curve.
Assay [10] deals with VP-MCC cell lines (MKL-1, MKL-2, and Waga). Description: Selectivity VP-MCC versus control cells (average AUC). In kind it is cell-based.
Description: as §2
(§3) Figure S41: Discorhabdi nselectivity
(§4) Discorhabdin selectivity for VP -MCC and VN- MCCcells was estimated by comparison of activity (average AUC) for each dis corhabdin against VP -MCC (panel A) or VN- MCC (panel B) cell lines compared to control cells . Discorhabdins were sort ed by selectivity from most to least selective. - fold dif fer ence = (av e VN -MCC or VP -MCC AUC/ control AUC). Error bars […]
(§5) (1 picture or pasted object on this page, not shown here)

For assay [11], the system named is VN-MCC cell lines (MCC13, MCC26, and UISO). Description: Selectivity VN-MCC versus control cells (average AUC). The class given is cell-based.
Description: as §2, §3, §4, §5

Where [12] appears, read: control skin cell line, CellTiterGlo, normalized to DMSO, read-out: IC50 (nM) HaCaT.
Setting [13] is: read-out: IC50 for control cells.

Usually IC50 stands for the concentration that inhibits the measured activity by half.

On to `O=C1CC2SC3CC2(C=C1Br)C1=C(N3)C(=O)c2[nH]cc3c2C1=NCC3` (single isomer, unassigned; (+)) [Compound 1], for which the IC50 was 273 nM in assay [1] (setting [12]); at most 1000 nM in assay [1] (setting [13]); 48 nM in [2]; 197 nM in [4]; 64 nM in assay [5]; 57 nM in assay [6]. Also, the IC50 in assay [8] turned out to be 54 nM; in assay [9] it was 29 nM. In addition, the “AUC (arbitrary units) HaCaT” value in assay [1] was 29.87 arbitrary units. The “AUC (arbitrary units) MKL-2” value in assay [2] was 6.99 arbitrary units. The “averaged potency (IC50) across all MCC cell lines tested” value (“averaged potency” below) in assay [3] was “sub-micromolar”. The “AUC (arbitrary units) MCC26” value in assay [4] is on record as 88.19 arbitrary units. Also, the “AUC (arbitrary units) MCC13” value in assay [5] turned out to be 8.589 arbitrary units. For the same compound, the “AUC (arbitrary units) WaGa” value in assay [6] is on record as 6.873 arbitrary units. The “activity on cell viability, in words” value in [7] was “most generally toxic compound tested”. Moreover, the “AUC (arbitrary units) UISO” value in [8] was 7.172 arbitrary units. In addition, the “AUC (arbitrary units) MKL-1” value in assay [9] was found to be 4.944 arbitrary units.
On to `CSC1=CC(=O)C(Br)=C[C@]12C=CNC1=C2C2=NCCc3c[nH]c(c32)C1=O` [Compound 8, (+)-(6S) N-13-demethyldiscorhabdin U], for which the IC50 in assay [1] (setting [12]) was 1010 nM; in [1] (setting [13]) it was at most 1000 nM; in assay [4], 749 nM; in assay [5], 299 nM; in [6] it was 86.9 nM; in [8], 251 nM. For the same compound, the IC50 in assay [9] came to 22.7 nM. The “AUC (arbitrary units) HaCaT” value in assay [1] came out at 123.3 arbitrary units. For the same compound, the “averaged potency” value in assay [3] is recorded as “sub-micromolar”. Besides, the “AUC (arbitrary units) MCC26” value in assay [4] is 80.16 arbitrary units. In addition, the “increased activity against VP-MCC compared to the control” value (shortened to “increased activity against VP-MCC”) in assay [10] is above 10 fold. In [5], the “AUC (arbitrary units) MCC13” value came out at 48.65 arbitrary units. Moreover, the “AUC (arbitrary units) WaGa” value in assay [6] came to 14.83 arbitrary units. Also, in assay [7], the “activity on cell viability, in words” value is given as “one of the most active compounds tested”. Moreover, the “AUC (arbitrary units) UISO” value in [8] came to 32.84 arbitrary units. In addition, in [9], the “AUC (arbitrary units) MKL-1” value came to 5.221 arbitrary units.
As to `O=C1C=C(SSC2=CC(=O)C(Br)=C[C@]23C=CNC2=C3C3=NCCc4c[nH]c(c43)C2=O)[C@@]2(C=CNC3=C2C2=NCCc4c[nH]c(c42)C3=O)C=C1Br` [Compound 10, (−)-(6S,6′S) discorhabdin W], in [1] (setting [12]), the IC50 is 4860 nM. The “AUC (arbitrary units) HaCaT” value in assay [1] amounted to 538.3 arbitrary units. Further, in assay [2], half-maximal inhibition (IC50) was put at 387 nM and the “AUC (arbitrary units) MKL-2” value worked out at 55.04 arbitrary units. In [4], the 50% inhibitory concentration (IC50) came to 2560 nM and the “AUC (arbitrary units) MCC26” value is recorded as 290.1 arbitrary units. Besides, the “increased activity against VP-MCC” value in assay [10] is above 10 fold. Further, in assay [5], the IC50 amounted to 1380 nM and the “AUC (arbitrary units) MCC13” value is 184.2 arbitrary units. In [6], the IC50 amounted to 307 nM and the “AUC (arbitrary units) WaGa” value is 40.16 arbitrary units. Also, in assay [8], 1240 nM corresponded to half-maximal inhibition (IC50) and the “AUC (arbitrary units) UISO” value turned out to be 162.4 arbitrary units. Also, in assay [9], the IC50 was 136 nM and the “AUC (arbitrary units) MKL-1” value came to 18.4 arbitrary units.
On to `Cc1[nH]c2c3c1CCN=C3C1=C(NCCC13C=C(Br)C(=O)C(Br)=C3)C2=O` [Compound 18, 14-methyldiscorhabdin C], for which the IC50 in assay [1] (setting [12]) was 5380 nM. In addition, the “AUC (arbitrary units) HaCaT” value in [1] is recorded as 584.7 arbitrary units. Moreover, in assay [4], the midpoint of inhibition, the IC50, lay at 3060 nM and the “AUC (arbitrary units) MCC26” value was determined as 329.4 arbitrary units. In assay [10], the “increased activity against VP-MCC” value is listed as above 10 fold. In assay [5], the IC50 amounted to 1450 nM and the “AUC (arbitrary units) MCC13” value is on record as 159.8 arbitrary units. For the same compound, in [6], the IC50 worked out at 430 nM and the “AUC (arbitrary units) WaGa” value turned out to be 51.75 arbitrary units. In addition, in assay [8], the IC50 came to 670 nM and the “AUC (arbitrary units) UISO” value was found to be 74.19 arbitrary units. Also, the “increased activity against VN-MCC compared to control cells (fold difference)” value in [11] is reported as above 3 fold. Moreover, in [9], the IC50 came out at 175 nM and the “AUC (arbitrary units) MKL-1” value is listed as 20.95 arbitrary units.
For `O=C1C(Br)=CC2(C=C1Br)CCNC1=C2C2=NCCc3c(Br)[nH]c(c32)C1=O` [Compound 19, 14-bromodiscorhabdin C], in assay [1] (setting [12]), the IC50 is 3740 nM. Further, the “AUC (arbitrary units) HaCaT” value in assay [1] amounted to 441.7 arbitrary units. Besides, the “averaged potency” value in assay [3] is given as “sub-micromolar”. In assay [4], the IC50 worked out at 893 nM and the “AUC (arbitrary units) MCC26” value is listed as 120.6 arbitrary units. Further, the “increased activity against VP-MCC” value in [10] was above 10 fold. Also, in assay [5], the IC50 worked out at 511 nM and the “AUC (arbitrary units) MCC13” value was determined as 90.22 arbitrary units. For the same compound, in assay [6], inhibition was half-maximal at 249 nM (IC50) and the “AUC (arbitrary units) WaGa” value worked out at 50.51 arbitrary units. Besides, in assay [8], inhibition was half-maximal at 412 nM (IC50) and the “AUC (arbitrary units) UISO” value is 88.25 arbitrary units. In assay [11], the “increased activity against VN-MCC compared to control cells (fold difference)” value is listed as above 3 fold. In assay [9], the IC50 came out at 37.8 nM and the “AUC (arbitrary units) MKL-1” value is reported as 7.189 arbitrary units.
For the compound `O=C1C=C[C@]2(C=C1Br)CCNC1=C2C2=NCCc3c[nH]c(c32)C1=O` [Compound 22, (+)-(6S)-discorhabdin E], in assay [1] (setting [12]), the IC50 amounted to 3010 nM. The “AUC (arbitrary units) HaCaT” value in assay [1] was found to be 328.3 arbitrary units. Moreover, the “averaged potency” value in assay [3] was “sub-micromolar”. In addition, in assay [4], the IC50 worked out at 2000 nM and the “AUC (arbitrary units) MCC26” value is listed as 226.2 arbitrary units. Moreover, in [10], the “increased activity against VP-MCC” value was above 10 fold. In assay [5], the IC50 was determined as 888 nM and the “AUC (arbitrary units) MCC13” value is given as 106.9 arbitrary units. Further, in [6], the concentration for half-maximal inhibition (IC50) is 332 nM and the “AUC (arbitrary units) WaGa” value was found to be 36.75 arbitrary units. Besides, in assay [8], 459 nM corresponded to half-maximal inhibition (IC50) and the “AUC (arbitrary units) UISO” value is on record as 53.3 arbitrary units. In assay [9], the IC50 worked out at 125 nM and the “AUC (arbitrary units) MKL-1” value amounted to 14.16 arbitrary units.
